Assay results reported in ChEMBL document CHEMBL5550214, “Expanding Structure-Activity Relationships of Human Urotensin II Peptide Analogues: A Proposed Key Role of the N-Terminal Region for Novel Urotensin II Receptor Modulators” (J Med Chem, 2024).
Values belong to the molecule of their own block, whether it stands above or below them. Calls of active or inactive are those of the source. No cut-off for these calls is given here. Where a SMILES comes first, the peptide text is derived from it. Bridges are numbered along the chain shown (N, C = ends). [ ]: non-standard residue; d: D form. Pen = CC(C)(S)[C@H](N)C(=O)O; hSer = N[C@@H](CCO)C(=O)O; Orn = NCCC[C@H](N)C(=O)O

What was measured:
Aortic ring [1] = assay: Induction of contraction in Albino Wistar rat aortic ring at 1 to 30 nM relative to control; type: functional, Aorta; conditions: dose 1-30 nM
[2] = target: T1, Urotensin-2 receptor (Homo sapiens) (UniProt Q9UKP6); assay: Modulation of human UTR stably expressed in HEK293 cells assessed as increase in Ca2+ level at 0.1 nM by Fura 2-AM dye based calcium mobilization assay; type: functional, cell-based; conditions: filed as modulator
T1 sequence (whole entry): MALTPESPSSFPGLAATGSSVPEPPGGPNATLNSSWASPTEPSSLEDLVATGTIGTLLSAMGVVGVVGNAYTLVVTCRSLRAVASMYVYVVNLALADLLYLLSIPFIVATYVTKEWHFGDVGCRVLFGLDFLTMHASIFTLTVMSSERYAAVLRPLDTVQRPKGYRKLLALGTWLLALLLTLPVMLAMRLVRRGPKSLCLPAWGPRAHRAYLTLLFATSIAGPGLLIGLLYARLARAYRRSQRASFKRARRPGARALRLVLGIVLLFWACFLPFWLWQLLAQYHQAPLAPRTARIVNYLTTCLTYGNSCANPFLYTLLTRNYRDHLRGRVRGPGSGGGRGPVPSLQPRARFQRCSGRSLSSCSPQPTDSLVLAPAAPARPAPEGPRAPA

[3] = target: T1, Urotensin-2 receptor (Homo sapiens); assay: Modulation of human UTR stably expressed in HEK293 cells assessed as increase in Ca2+ level at 0.1 to 100 nM by Fura 2-AM dye based calcium mobilization assay; type: functional, cell-based; conditions: dose 0.1-100 nM
Urotensin-2 receptor = target: T2, Urotensin-2 receptor (Homo sapiens, UniProt Q9UKP6); assay: Modulation of human UTR stably expressed in HEK293 cells assessed as increase in Ca2+ level by Fura 2-AM dye based calcium mobilization assay; type: functional, cell-based
T2 sequence (Q9UKP6 whole entry): T1 sequence (whole entry)

Aortic ring [4] = assay: Induction of contraction in Albino Wistar rat aortic ring at 1 to 30 nM; type: functional, tissue-based; conditions: Aorta, dose 1-30 nM
Aortic ring [5] = assay: Induction of contraction in Albino Wistar rat aortic ring assessed as Emax of U-II(4-11) at 1 uM incubated for 30 mins in presence of U-II(4-11) (reference value: 159.8 +/- 7.3 dyne/mg); type: functional, Aorta; conditions: 0.5 h
Aortic ring [6] = assay: Induction of contraction in Albino Wistar rat aortic ring assessed as Emax of U-II(4-11) at 10 uM incubated for 30 mins in presence of U-II(4-11) (reference value: 152.4 +/- 5.1 dyne/mg); type: functional, Aorta; conditions: 0.5 h
Aortic ring [7] = assay: Induction of contraction in Albino Wistar rat aortic ring assessed as Emax of [Ala1]U-II at 1 uM incubated for 30 mins in presence of [Ala1]U-II (reference value: 220.3 +/- 17.48 dyne/mg); type: functional, Aorta; conditions: 0.5 h
Aortic ring [8] = assay: Induction of contraction in Albino Wistar rat aortic ring assessed as Emax of hU-II at 1 uM incubated for 30 mins in presence of hU-II (reference value: 224.8 +/- 11.71 dyne/mg); type: functional, Aorta; conditions: 0.5 h
Aortic ring [9] = assay: Induction of contraction in Albino Wistar rat aortic ring assessed as Emax of [Ala1]U-II at 10 uM incubated for 30 mins in presence of [Ala1]U-II (reference value: 308.1 +/- 21.4 dyne/mg); type: functional, Aorta; conditions: 0.5 h
Aortic ring [10] = assay: Induction of contraction in Albino Wistar rat aortic ring assessed as Emax of hU-II at 0.1 uM incubated for 30 mins in presence of hU-II (reference value: 251.4 +/- 15.43 dyne/mg); type: functional, Aorta; conditions: 0.5 h
Aortic ring [11] = assay: Induction of contraction in Albino Wistar rat aortic ring assessed as Emax of [Ala1]U-II at 0.1 uM incubated for 30 mins in presence of [Ala1]U-II (reference value: 323 +/- 30.45 dyne/mg); type: functional, Aorta; conditions: 0.5 h
Aortic ring [12] = assay: Induction of contraction in Albino Wistar rat aortic ring assessed as Emax of hU-II at 10 uM incubated for 30 mins in presence of hU-II (reference value: 214.5 +/- 10.51 dyne/mg); type: functional, Aorta; conditions: 0.5 h
Aortic ring [13] = assay: Induction of contraction in Albino Wistar rat aortic ring assessed as Emax of U-II(4-11) at 0.1 uM incubated for 30 mins in presence of U-II(4-11) (reference value: 159.8 +/- 7.39 dyne/mg); type: functional, Aorta; conditions: 0.5 h

SMILES: CC(C)[C@H](NC(=O)[C@@H]1CSSC[C@H](NC(=O)[C@H](CC(=O)O)NC(=O)[C@@H]2CCCN2C(=O)[C@@H](NC(=O)[C@@H](N)CCC(=O)O)[C@@H](C)O)C(=O)N[C@@H](Cc2ccccc2)C(=O)N[C@@H](Cc2c[nH]c3ccccc23)C(=O)N[C@@H](CCCCN)C(=O)N[C@@H](Cc2ccc(O)cc2)C(=O)N1)C(=O)O [UROTENSIN-II]
Emax (Aortic ring [1]): 237.2 dyn/mg

SMILES: CC(C)[C@H](NC(=O)[C@@H]1CSSC[C@H](NC(=O)[C@@H](N)CC(=O)O)C(=O)N[C@@H](Cc2ccccc2)C(=O)N[C@@H](Cc2c[nH]c3ccccc23)C(=O)N[C@@H](CCCCN)C(=O)N[C@@H](Cc2ccc(O)cc2)C(=O)N1)C(=O)O (H-DCFWKYCV-OH; disulfide 2-7)
EC50 (Urotensin-2 receptor): 1.2 nM

SMILES: CC(C)[C@H](NC(=O)[C@@H]1CSSC(C)(C)[C@H](NC(=O)[C@@H](N)CC(=O)O)C(=O)N[C@@H](Cc2ccccc2)C(=O)N[C@H](Cc2c[nH]c3ccccc23)C(=O)N[C@@H](CCCN)C(=O)N[C@@H](Cc2ccc(O)cc2)C(=O)N1)C(=O)O (H-D[Pen]F[dW][Orn]YCV-OH; disulfide 2-7)
Activity (Aortic ring [4]): inactive
Activity [3]: inactive

More lines, main results first:

Activity [2]: Active
Activity [3]: inactive
SMILES: CC(C)[C@H](NC(=O)[C@@H]1CSSC[C@H](NC(=O)[C@H](CC(=O)O)NC(=O)[C@@H]2CCCN2C(=O)[C@@H](NC(=O)[C@@H](N)CCO)[C@@H](C)O)C(=O)N[C@@H](Cc2ccccc2)C(=O)N[C@@H](Cc2c[nH]c3ccccc23)C(=O)N[C@@H](CCCCN)C(=O)N[C@@H](Cc2ccc(O)cc2)C(=O)N1)C(=O)O (H-[hSer]TPDCFWKYCV-OH; disulfide 5-10)
Emax (Aortic ring [1]): 144.2 dyn/mg

Activity ([3]; filed as modulator): Active
SMILES: CC(C)[C@H](NC(=O)[C@@H]1CSSC(C)(C)[C@H](NC(=O)[C@H](CC(=O)O)NC(=O)[C@@H]2CCCN2C(=O)[C@@H](NC(=O)[C@@H](N)CCC(N)=O)[C@@H](C)O)C(=O)N[C@@H](Cc2ccccc2)C(=O)N[C@H](Cc2c[nH]c3ccccc23)C(=O)N[C@@H](CCCN)C(=O)N[C@@H](Cc2ccc(O)cc2)C(=O)N1)C(=O)O
Emax (Aortic ring [5]): 215.7 dyn/mg
Emax (Aortic ring [6]): 164.2 dyn/mg
Emax (Aortic ring [7]): 295.9 dyn/mg
Emax (Aortic ring [8]): 336.6 dyn/mg
Emax (Aortic ring [9]): 218.8 dyn/mg
Emax (Aortic ring [10]): 507.7 dyn/mg
Emax (Aortic ring [11]): 46.4 dyn/mg
Emax (Aortic ring [12]): 245.7 dyn/mg
Activity (Aortic ring [4]): inactive
Emax (Aortic ring [13]): 265.4 dyn/mg
